According to patent publication US20140120184A1, “ARGON-BASED INHALABLE GASEOUS MEDICINAL PRODUCT FOR THE TREATMENT OF NEUROINTOXICATIONS” (Air Liquide Sante (International), priority 2003, published 2014):

Assays:
Format in all cases: in vivo, Sprague-Dawley rats
[1] = tested on: sensitization to D-amphetamine; experiment: Locomotor activity on D7 after D-amphetamine challenge (photoelectric cell actimetry) in the D-amphetamine sensitization protocol; settings: rats given D-amphetamine 1 mg/kg i.p. D1-D3, each injection followed by 3 h gas exposure, versus sensitized rats treated with air
Protocol: (§1) To do this, adult male Sprague-Dawley rats that weighed approximately 220 g when they arrived in the laboratory were used. Throughout the study, the animals were placed under standard animalhouse conditions, in groups of 8, so as to avoid the appearance of a stress reaction subsequent to isolation. They had water and food ad libitum.
(§2) For 3 consecutive days (from D1 to D3), 8 groups of animals (8 rats per group) were administered intraperitoneally (i.p.) either D-amphetamine (amph: 1 mg/ml/kg), or a saline solution (saline: 1 ml/kg) for the control animals. […]
(§3) The locomotor activity and the righting activity of the animals were evaluated at D6, after an i.p. injection of a saline solution (1 ml/kg) in order to determine the actual effects of the treatments administered with the various gases and mixtures of gas, and on D7 after an i.p. administration of D-amphetamine (1 mg/ml/kg) in order to evaluate the effects of the gases and mixtures of gas on sensitization to D-amphetamine. […]
(§4) The results obtained (see FIGS. 1 and 2) are expressed as the mean±the standard error of the mean. […]

[2] = Overall and qualitative evaluation of the gas-treated rats (neurotoxic effect, behaviour) during the sensitization protocol; settings: conclusion from locomotor and righting activity of the gas-exposed rats
Protocol: as §1, §2, §3

[3] = tested on: sensitization to D-amphetamine; experiment: Stereotypic righting activity on D7 after D-amphetamine challenge (photoelectric cell actimetry) in the D-amphetamine sensitization protocol; settings: rats given D-amphetamine 1 mg/kg i.p. D1-D3, each injection followed by 3 h gas exposure, versus sensitized rats treated with air
Protocol: as §1, §2, §3, §4

argon [argon at 75 vol %]
effect on the locomotor hyperactivity inherent to the development of sensitization to D-amphetamine [1]: total inhibitory effect
neurotoxic effect [2]: without any neurotoxic effect being observed
effect on the righting activity corresponding to the development of the sensitization to D-amphetamine [3]: inhibitory effect
